Source: ChEMBL document CHEMBL1201862, “PubChem BioAssay data set” (2004)
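Briefly, cells in 96-well plates were exposed to five compound concentrations for 48 h, and endpoints were estimated by linear interpolation. Abbreviation: GI50, concentration required for 50% inhibition of growth.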 Active and inactive are the calls of the source. No stated cut-off is given here; in the data, active = GI50 up to about 1.1 µM and inactive = higher.

Experiments:
Test in all cases: DTP human tumour cell line panel, 48 h
HL-60 = tested on: HL-60
KM12 = tested on: KM12
786-0 = tested on: 786-0
SK-MEL-28 = tested on: SK-MEL-28
SK-MEL-2 = tested on: SK-MEL-2
U-251 = tested on: U-251
RXF 393 = tested on: RXF 393
OVCAR-5 = tested on: OVCAR-5
SNB-19 = tested on: SNB-19
Hs-578T = tested on: Hs-578T
K562 = tested on: K562
LOX IMVI = tested on: LOX IMVI
MOLT-4 = tested on: MOLT-4
OVCAR-8 = tested on: OVCAR-8
A549 = tested on: A549
SNB-75 = tested on: SNB-75
SK-MEL-5 = tested on: SK-MEL-5
NCI-H226 = tested on: NCI-H226
TK-10 = tested on: TK-10
UACC-62 = tested on: UACC-62

In the case of `COC(=O)c1cc(C#N)[nH]c1-c1ccc(Br)s1`, the GI50 (HL-60) is reported as 11.5 µM (inactive), the GI50 (KM12) is reported as 16.7 µM (inactive) and the GI50 (786-0) is reported as 14.5 µM (inactive). The GI50 (SK-MEL-28) was 11.9 µM (inactive), the GI50 (SK-MEL-2) was 6.55 µM (inactive) and the GI50 (U-251) was 10.4 µM (inactive). For the same molecule, the GI50 (RXF 393) was 4.3 µM (inactive), the GI50 (OVCAR-5) was 11.2 µM (inactive) and the GI50 (SNB-19) was 7.74 µM (inactive). For the same molecule, the GI50 (Hs-578T) was 5.74 µM (inactive), the GI50 (K562) was > 30.8 µM (inactive) and the GI50 (LOX IMVI) was 9.14 µM (inactive). For the same molecule, the GI50 (MOLT-4) was 12.3 µM (inactive), the GI50 (OVCAR-8) was 12.8 µM (inactive) and the GI50 (A549) was 8.55 µM (inactive). The GI50 (SNB-75) was 8.85 µM (inactive), the GI50 (SK-MEL-5) was 4.11 µM (inactive) and the GI50 (NCI-H226) was 8.55 µM (inactive). For the same molecule, the GI50 (TK-10) was 13 µM (inactive) and the GI50 (UACC-62) was 11.6 µM (inactive).

`CCc1nc(N)nc(N)c1-c1ccc(NCCc2ccccc2)c([N+](=O)[O-])c1` was tested, and the GI50 (HL-60) was 0.186 µM (active), the GI50 (KM12) was 1.33 µM (inactive) and the GI50 (786-0) was 0.211 µM (active). The GI50 (SK-MEL-28) was 2.74 µM (inactive), the GI50 (SK-MEL-2) was 8.71 µM (inactive) and the GI50 (U-251) was 0.364 µM (active). The GI50 (RXF 393) was 3.55 µM (inactive), the GI50 (OVCAR-5) was 17.2 µM (inactive) and the GI50 (SNB-19) was 2.21 µM (inactive). For the same molecule, the GI50 (Hs-578T) was 9.66 µM (inactive), the GI50 (K562) was 0.0325 µM (active) and the GI50 (LOX IMVI) was 0.199 µM (active). For the same molecule, the GI50 (MOLT-4) was 0.491 µM (active), the GI50 (OVCAR-8) was 0.394 µM (active) and the GI50 (A549) was 0.0861 µM (active). For the same molecule, the GI50 (SNB-75) was 3.56 µM (inactive), the GI50 (SK-MEL-5) was 0.486 µM (active) and the GI50 (NCI-H226) was 6.05 µM (inactive). The GI50 (TK-10) was 13.3 µM (inactive) and the GI50 (UACC-62) was 0.162 µM (active).

In the case of `O=C(Nc1cccc(C(F)(F)F)c1)c1cc(Br)cc(Br)c1O` [FLUOROSALAN], the GI50 (HL-60) is reported as 2.34 µM (inactive), the GI50 (KM12) is reported as 3.28 µM (inactive) and the GI50 (786-0) is reported as 3.63 µM (inactive). For the same molecule, the GI50 (SK-MEL-28) was 3.38 µM (inactive), the GI50 (SK-MEL-2) was 2.32 µM (inactive) and the GI50 (U-251) was 3.79 µM (inactive). The GI50 (RXF 393) was 2.71 µM (inactive), the GI50 (OVCAR-5) was 4.76 µM (inactive) and the GI50 (SNB-19) was 2.77 µM (inactive). For the same molecule, the GI50 (Hs-578T) was 3.4 µM (inactive), the GI50 (K562) was 2.08 µM (inactive) and the GI50 (LOX IMVI) was 2.06 µM (inactive). For the same molecule, the GI50 (MOLT-4) was 3.15 µM (inactive), the GI50 (OVCAR-8) was 3.09 µM (inactive) and the GI50 (A549) was 2.83 µM (inactive). The GI50 (SNB-75) was 3.35 µM (inactive), the GI50 (SK-MEL-5) was 1.65 µM (inactive) and the GI50 (NCI-H226) was 3.51 µM (inactive). The GI50 (TK-10) was 2.96 µM (inactive) and the GI50 (UACC-62) was 3.56 µM (inactive).
